Reference: the OligoGym collection
Bases are written 5' to 3'; sugars and linkages follow in the same order, as letters with counts (s phosphorothioate, o phosphodiester; PS: all linkages phosphorothioate). The collection does not say whether C is 5-methylated. l = locked nucleic acid (LNA); d = 2'-deoxy (DNA)

These sequences were tested against Tau (assay: rat primary cortical neurons, FLIPR, 25 uM ASO).
With CCTAATCCTGTGCTT (sugars l3 d9 l3, PS) the calcium oscillation score was 58.2 % of control. For CCTAATGAGCCACACT (sugars l3 d10 l3, PS), the calcium oscillation score was 92.6 % of control. With “CCTACTTTATTCCCTTA (sugars l2 d12 l3, PS)” the calcium oscillation score was 95.9 % of control. “CCTACTTTATTCCCTTAA (sugars l2 d12 l4, PS)” was tested, and the calcium oscillation score was 86.8 % of control. In the case of “CCTAGAACACAACACAC (sugars l3 d10 l4, PS)”, the calcium oscillation score is reported as 58.6 % of control. In the case of CCTATGCCAATTATTT (sugars l4 d8 l4, PS), the calcium oscillation score is reported as 68.2 % of control. For “CCTCACTTTACACATTAAAT (sugars l4 d14 l2, PS)”, the calcium oscillation score was 64.1 % of control. With CCTCCACCCTTACACA (sugars l1 d13 l2, PS) the calcium oscillation score was 58.9 % of control. For “CCTCCACCCTTACACAT (sugars l2 d13 l2, PS)”, the calcium oscillation score was 55.6 % of control. For “CCTCCATTAAGAACCTA (sugars l2 d12 l3, PS)”, the calcium oscillation score was 90.1 % of control. With “CCTCCCACCTATCAGTCA (sugars l1 d15 l2, PS)” the calcium oscillation score was 46.2 % of control. In the case of “CCTCCCTTTAATGCCAGGCC (sugars l3 d14 l3, PS)”, the calcium oscillation score is reported as 34.2 % of control. “CCTCCTAGAACACAACA (sugars l3 d12 l2, PS)” was tested, and the calcium oscillation score was 57 % of control. “CCTCCTGGTTTATGATGGAT (sugars l3 d14 l3, PS)” was tested, and the calcium oscillation score was 58.3 % of control. CCTCCTTAACCATTAG (sugars l2 d11 l3, PS) was tested, and the calcium oscillation score was 54.5 % of control. For CCTCGTCAGCTAGCGT (sugars l3 d10 l3, PS), the calcium oscillation score was 76 % of control. CCTCTAGTTTTACCTA (sugars l2 d11 l3, PS) was tested, and the calcium oscillation score was 58.8 % of control. For “CCTCTAGTTTTACCTAA (sugars l2 d11 l4, PS)”, the calcium oscillation score was 72.9 % of control. In the case of “CCTCTCCTTTAAGAAAA (sugars l4 d10 l3, PS)”, the calcium oscillation score is reported as 74.9 % of control. In the case of “CCTCTGTCTTAACTTTT (sugars l3 d10 l4, PS)”, the calcium oscillation score is reported as 97 % of control. For CCTCTTCCACTACAAG (sugars l2 d12 l2, PS), the calcium oscillation score was 57.8 % of control. With “CCTCTTCCACTACAAGCT (sugars l2 d14 l2, PS)” the calcium oscillation score was 49.1 % of control. In the case of “CCTGAAACACCTTTTTCC (sugars l2 d14 l2, PS)”, the calcium oscillation score is reported as 71.1 % of control. For CCTGATCACAAACCCT (sugars l3 d10 l3, PS), the calcium oscillation score was 100 % of control. For CCTGGTGGCGTTGGCC (sugars l3 d10 l3, PS), the calcium oscillation score was 32.6 % of control. In the case of CCTGGTTTATGATGGA (sugars l3 d10 l3, PS), the calcium oscillation score is reported as 26.1 % of control. In the case of “CCTGGTTTATGATGGATGTT (sugars l3 d14 l3, PS)”, the calcium oscillation score is reported as 0 % of control. With “CCTGTCTCAAACACCTA (sugars l2 d12 l3, PS)” the calcium oscillation score was 60.6 % of control. With CCTTAAAGCTCCAACA (sugars l4 d10 l2, PS) the calcium oscillation score was 94.6 % of control. In the case of CCTTAATTTCACCC (sugars l3 d8 l3, PS), the calcium oscillation score is reported as 66.7 % of control. For CCTTAATTTCACCCT (sugars l3 d9 l3, PS), the calcium oscillation score was 140 % of control. In the case of CCTTAATTTCACCCTC (sugars l3 d10 l3, PS), the calcium oscillation score is reported as 132 % of control. CCTTACCACTTTCAGG (sugars l3 d10 l3, PS) was tested, and the calcium oscillation score was 111 % of control. In the case of “CCTTACTTTCTACTCAAT (sugars l2 d12 l4, PS)”, the calcium oscillation score is reported as 62.1 % of control. “CCTTACTTTCTACTCAATT (sugars l3 d14 l2, PS)” was tested, and the calcium oscillation score was 48.1 % of control. In the case of “CCTTGAAGTCAAGCTTCTCA (sugars l3 d14 l3, PS)”, the calcium oscillation score is reported as 66.4 % of control. For “CCTTGATCATATTTGTGGCA (sugars l3 d14 l3, PS)”, the calcium oscillation score was 28.6 % of control. For CCTTTGAAAGTCCTTT (sugars l2 d11 l3, PS), the calcium oscillation score was 100 % of control. In the case of CCTTTGAAAGTCCTTT (sugars l2 d12 l2, PS), the calcium oscillation score is reported as 96.4 % of control. In the case of CCTTTGAAAGTCCTTT (sugars l3 d9 l4, PS), the calcium oscillation score is reported as 90.5 % of control. CCTTTGAAAGTCCTTT (sugars l3 d11 l2, PS) was tested, and the calcium oscillation score was 121 % of control. With CCTTTGAAAGTCCTTT (sugars l4 d8 l4, PS) the calcium oscillation score was 106 % of control. For CCTTTGAAAGTCCTTT (sugars l4 d9 l3, PS), the calcium oscillation score was 96.4 % of control. In the case of “CCTTTGTAATTCCTTCTC (sugars l3 d13 l2, PS)”, the calcium oscillation score is reported as 53.4 % of control. For “CCTTTTAAAAGAACCCT (sugars l3 d11 l3, PS)”, the calcium oscillation score was 96 % of control. With CCTTTTAATTCATTAG (sugars l4 d8 l4, PS) the calcium oscillation score was 59 % of control. With CCTTTTCATGTTAAATC (sugars l4 d9 l4, PS) the calcium oscillation score was 86.6 % of control. With “CCTTTTCTACTCTACTC (sugars l3 d12 l2, PS)” the calcium oscillation score was 70.9 % of control. For “CCTTTTCTACTCTACTCT (sugars l3 d13 l2, PS)”, the calcium oscillation score was 63.3 % of control. For “CCTTTTCTACTCTACTCTC (sugars l3 d14 l2, PS)”, the calcium oscillation score was 55.7 % of control. With “CCTTTTCTACTCTACTCTCA (sugars l2 d16 l2, PS)” the calcium oscillation score was 62.1 % of control. With “CCTTTTTATTTCCTCCGC (sugars l3 d13 l2, PS)” the calcium oscillation score was 40.1 % of control. For “CCTTTTTCCATCTTACTAAT (sugars l3 d14 l3, PS)”, the calcium oscillation score was 54.7 % of control. For “CGAAACCAAGGTCCCACCAG (sugars l3 d14 l3, PS)”, the calcium oscillation score was 40.4 % of control. In the case of CGAACTGCGAGGAGCA (sugars l3 d10 l3, PS), the calcium oscillation score is reported as 2.71 % of control. In the case of “CGAACTGCGAGGAGCAGCTG (sugars l3 d14 l3, PS)”, the calcium oscillation score is reported as 0 % of control. For CGAATTACCTAACCTC (sugars l3 d9 l4, PS), the calcium oscillation score was 88.2 % of control. For CGACTTATCTATCCAT (sugars l4 d9 l3, PS), the calcium oscillation score was 46.2 % of control. For “CGACTTATCTATCCATC (sugars l4 d10 l3, PS)”, the calcium oscillation score was 50.5 % of control. With “CGACTTATCTATCCATCT (sugars l2 d12 l4, PS)” the calcium oscillation score was 45.8 % of control. CGACTTGTACACGATC (sugars l3 d10 l3, PS) was tested, and the calcium oscillation score was 48.9 % of control. In the case of CGAGCCAAAGCCGA (sugars l3 d8 l3, PS), the calcium oscillation score is reported as 116 % of control. For CGAGTCTACCATGTCG (sugars l3 d10 l3, PS), the calcium oscillation score was 103 % of control. “CGAGTCTACCATGTCGATGC (sugars l3 d14 l3, PS)” was tested, and the calcium oscillation score was 78.5 % of control. For CGATGCTGCCGGTGGA (sugars l3 d10 l3, PS), the calcium oscillation score was 2.61 % of control. For “CGCACCAGGAACCTTCCAGA (sugars l3 d14 l3, PS)”, the calcium oscillation score was 28.2 % of control. With CGCAGGCGCGAGCA (sugars l3 d8 l3, PS) the calcium oscillation score was 102 % of control. In the case of CGCAGGCGCGAGCAGC (sugars l3 d10 l3, PS), the calcium oscillation score is reported as 20.7 % of control. For “CGCCAGGGACGTGGGTGATA (sugars l3 d14 l3, PS)”, the calcium oscillation score was 0 % of control. For CGCCCCACTTTTAATT (sugars l3 d11 l2, PS), the calcium oscillation score was 58.3 % of control. With “CGCCCCACTTTTAATTA (sugars l2 d12 l3, PS)” the calcium oscillation score was 77.2 % of control. For “CGCCTTTAGTGATTACAGGC (sugars l3 d14 l3, PS)”, the calcium oscillation score was 20.2 % of control. CGCGGAAGGTCAGCTT (sugars l3 d10 l3, PS) was tested, and the calcium oscillation score was 33.3 % of control. With “CGCGGAAGGTCAGCTTGTGG (sugars l3 d14 l3, PS)” the calcium oscillation score was 0 % of control. CGCTTCCAGTCCCG (sugars l3 d8 l3, PS) was tested, and the calcium oscillation score was 107 % of control. In the case of CGCTTCCAGTCCCGTC (sugars l3 d10 l3, PS), the calcium oscillation score is reported as 15.7 % of control. With CGGAAGGTCAGCTTGT (sugars l3 d10 l3, PS) the calcium oscillation score was 32.5 % of control. In the case of “CGGAAGGTCAGCTTGTGGGT (sugars l3 d14 l3, PS)”, the calcium oscillation score is reported as 14.5 % of control. For CGGCGCAGGCGCGAGC (sugars l3 d10 l3, PS), the calcium oscillation score was 2.71 % of control.
